In brackets after ≈: the same amount, converted by molar mass. Bounds are passed on as bounds.

One may read the MIC as the least concentration at which growth counts as inhibited.

One experiment has as its system C. glabrata LMDM 34. Kind of experiment: MIC, CLSI M27 broth microdilution. The format is cell-based, Candida glabrata. Conditions: antifungal drugs. An excerpt:
(§1) The fungal strains used in this study were C. albicans ATCC 10231, C. albicans ATCC 64550, C. parapsilosis ATCC 22019, C. tropicalis ATCC 750, C. tropicalis ATCC 200956 (resistant to azoles and AMB), C. glabrata LMDM 34 (resistant to echinocandins), C. metapsilosis MUM 15.12, C. orthopsilosis MUM 17.13, C. lusitaniae MUM 17.08, C. krusei ATCC 6258 (Issatchenkia orientalis ATCC 6258), and C. auris CDC B11903. Additionally, nine clinical isolates were included: C. parapsilosis Synlab 406 (FLC-resistant) and eight C. auris isolates identified by MALDI-TOF MS (Bruker Daltonics, Bremen, Germany) according to Zhao et al.. These yeasts were cultured on Sabouraud Dextrose Agar (SDA; Sigma-Aldrich, St. Louis, MO, USA) for 24 h at 35 °C.
(§2) Antifungal susceptibility testing was performed according to Clinical and Laboratory Standards Institute M27, 4th Edition (CLSI standard M27, 4th Edition). Some modifications were applied for evaluation of the antifungal activity of EOs and terpenes. Initially, a screening was carried out to determine the antifungal activity of the EOs and of commercial terpenes. Stock concentrations of EOs and terpenes were prepared at 512 µg/mL and an inoculum of 2.5 × 10^3 CFU/mL of each yeast was prepared in RPMI 1640-MOPS (Sigma- Aldrich St. Louis, MO, USA). Thereafter, 100 µL of each stock solution of EOs or terpenes was dispensed in 96-well microdilution plates (Corning®, Costar®, NY, USA) and 100 µL of each yeast inoculum was added. […] Microdilution plates were incubated at 35 °C and, after 24 h, the presence or absence of growth was visually checked using a manual mirror viewer and then compared with the amount of growth in the control (no EO or terpene). Compounds able to inhibit yeast growth were tested to determine the minimal inhibitory concentration (MIC) as follows: 100 µL of 10 two-fold dilutions of the EOs or commercial terpenes was dispensed in 96-well microplates and the yeast inoculum was added. Final concentrations of the EOs or terpenes ranged from 0.5 µg/mL to 256 µg/mL. Microdilution plates were incubated at 35 °C for 24 h. MICs were visually determined at the lowest concentration that produced visual inhibition compared to the growth control. The assays were performed at least three times in duplicate on different days. The results were expressed as geometric means (GM) and ranges. As an antifungal susceptibility testing control, the activity of ITC and AMB against the reference strains C. krusei ATCC 6258 and C. parapsilosis ATCC 22019 was evaluated in all experiments following the CLSI standard M27, 4th Edition. It was mandatory that the MIC values remained in the accepted range.
In general terms: Broth dilution looks for growth in wells or tubes with falling amounts of substance.

The subject of experiment [1] is C. parapsilosis ATCC 22019. The experiment in a line: MIC, CLSI M27 broth microdilution. Format: cell-based, Candida parapsilosis. The conditions noted are these: antifungal drugs.
Description: as §1, §2

The test system of experiment [2] is C. parapsilosis Synlab 406. Kind of experiment: MIC, CLSI M27 broth microdilution. Format: cell-based, Candida parapsilosis. Conditions: C. parapsilosis Synlab 406, antifungal drugs.
Description: as §1, §2

In a further experiment the test system is C. auris Ca 1. Kind of experiment: MIC, CLSI M27 broth microdilution. The format is cell-based, Candida auris. The conditions noted are these: C. auris Ca 1, antifungal drugs.
Description: as §1, §2

The next experiment deals with C. auris CDC B11903. Kind of experiment: MIC, CLSI M27 broth microdilution. The format is cell-based, Candida auris. Conditions: C. auris CDCB11903, antifungal drugs.
Description: as §1, §2

A further experiment deals with C. auris Ca 45. Kind of experiment: MIC, CLSI M27 broth microdilution. Format: cell-based, Candida auris. Conditions: C. auris Ca 45, antifungal drugs.
Description: as §1, §2

The subject of the next experiment is C. auris Ca 10. The experiment in a line: MIC, CLSI M27 broth microdilution. Format: cell-based, Candida auris. The conditions noted are these: antifungal drugs.
Description: as §1, §2

The next experiment deals with C. auris Ca 17. The experiment in a line: MIC, CLSI M27 broth microdilution. Format: cell-based, Candida auris. Conditions: C. auris Ca 17, antifungal drugs.
Description: as §1, §2

For the next experiment, the system named is C. auris Ca 41. Kind of experiment: MIC, CLSI M27 broth microdilution. The format is cell-based, Candida auris. Conditions: C. auris Ca 41, antifungal drugs.
Description: as §1, §2

The subject of another experiment is C. auris Ca 46. The experiment in a line: MIC, CLSI M27 broth microdilution. The format is cell-based, Candida auris. The conditions noted are these: C. auris Ca 46, antifungal drugs.
Description: as §1, §2

The subject of the next experiment is C. auris Ca 9. Kind of experiment: MIC, CLSI M27 broth microdilution. The conditions noted are these: C. auris Ca 9, antifungal drugs. Format: cell-based, Candida auris.
Description: as §1, §2

Another experiment concerns C. auris Ca 32. The experiment in a line: MIC, CLSI M27 broth microdilution. Format: cell-based, Candida auris. The conditions noted are these: C. auris Ca 32, antifungal drugs.
Description: as §1, §2

In another experiment the test system is C. lusitaniae MUM 17.08. The experiment in a line: MIC, CLSI M27 broth microdilution. Conditions: C. lusitaniae MUM 17.08, antifungal drugs. Format: cell-based, Candida lusitaniae.
Description: as §1, §2

The test system of experiment [3] is C. metapsilosis MUM 15.12. The experiment in a line: MIC, CLSI M27 broth microdilution. The format is cell-based, Candida metapsilosis. Conditions: C. metapsilosis MUM 15.12, antifungal drugs.
Description: as §1, §2

In the next experiment the test system is C. tropicalis ATCC 750. Kind of experiment: MIC, CLSI M27 broth microdilution. The format is cell-based, Candida tropicalis. The conditions noted are these: antifungal drugs.
Description: as §1, §2

For experiment [4], the system named is C. tropicalis ATCC 200956. Kind of experiment: MIC, CLSI M27 broth microdilution. The format is cell-based, Candida tropicalis. The conditions noted are these: C. tropicalis ATCC 200956, antifungal drugs.
Description: as §1, §2

The test system of a further experiment is C. albicans ATCC 64550. The experiment in a line: MIC, CLSI M27 broth microdilution. Format: cell-based, Candida albicans. Conditions: antifungal drugs.
Description: as §1, §2

Another experiment deals with C. albicans ATCC 10231. The experiment in a line: MIC, CLSI M27 broth microdilution. Format: cell-based, Candida albicans. Conditions: antifungal drugs.
Description: as §1, §2

The next experiment has as its system C. krusei ATCC 6258. The experiment in a line: MIC, CLSI M27 broth microdilution. The format is cell-based, Candida krusei. The conditions noted are these: C. krusei ATCC 6258, antifungal drugs.
Description: as §1, §2

Experiment [5] deals with C. orthopsilosis MUM 17.13. The experiment in a line: MIC, CLSI M27 broth microdilution. The format is cell-based, Candida orthopsilosis. The conditions noted are these: C. orthopsilosis MUM 17.13, antifungal drugs.
Description: as §1, §2

The test system of a further experiment is C. auris. Kind of experiment: Screening of antifungal activity at 256 µg/mL against C. auris. The conditions noted are these: screening at 256 µg/mL, clinical isolates of C. auris. Format: cell-based, Candida auris.
Description: as §1
Antifungal susceptibility testing was performed according to Clinical and Laboratory Standards Institute M27, 4th Edition (CLSI standard M27, 4th Edition). Some modifications were applied for evaluation of the antifungal activity of EOs and terpenes. Initially, a screening was carried out to determine the antifungal activity of the EOs and of commercial terpenes. Stock concentrations of EOs and terpenes were prepared at 512 µg/mL and an inoculum of 2.5 × 10^3 CFU/mL of each yeast was prepared in RPMI 1640-MOPS (Sigma- Aldrich St. Louis, MO, USA). Thereafter, 100 µL of each stock solution of EOs or terpenes was dispensed in 96-well microdilution plates (Corning®, Costar®, NY, USA) and 100 µL of each yeast inoculum was added. […] MICs were visually determined at the lowest concentration that produced visual inhibition compared to the growth control. […] The results were expressed as geometric means (GM) and ranges. As an antifungal susceptibility testing control, the activity of ITC and AMB against the reference strains C. krusei ATCC 6258 and C. parapsilosis ATCC 22019 was evaluated in all experiments following the CLSI standard M27, 4th Edition. […]

In the case of `CCC(C)n1ncn(-c2ccc(N3CCN(c4ccc(OCC5COC(Cn6cncn6)(c6ccc(Cl)cc6Cl)O5)cc4)CC3)cc2)c1=O` (centres unmarked) [ITC, itraconazole], the MIC with C. glabrata LMDM 34 (Nakaseomyces glabratus, LMDM34, geometric mean) was 1 mg/L (≈ 1.42 µM); in experiment [1] (Lodderomyces parapsilosis, ATCC22019, geometric mean), 0.35 mg/L (≈ 0.496 µM); in [2] (Lodderomyces parapsilosis, SYNLAB406, geometric mean, read-out: MIC GM), 0.7 mg/L (≈ 0.992 µM); in the experiment on C. auris Ca 1 (Candidozyma auris, CA1, geometric mean, read-out: MIC GM) it was 0.06 mg/L (≈ 0.085 µM); in the experiment on C. auris CDC B11903 (Candidozyma auris, geometric mean, read-out: MIC GM), 0.04 mg/L (≈ 0.0567 µM); in the experiment on C. auris Ca 45 (Candidozyma auris, CA45, geometric mean, read-out: MIC GM), 0.04 mg/L (≈ 0.0567 µM). Moreover, the MIC amounted to 0.09 mg/L (≈ 0.128 µM) against C. auris Ca 10 (Candidozyma auris, CA10, geometric mean); 0.25 mg/L (≈ 0.354 µM) in the experiment with C. auris Ca 17 (Candidozyma auris, CA17, geometric mean, read-out: MIC GM); 0.06 mg/L (≈ 0.085 µM) in the experiment on C. auris Ca 41 (Candidozyma auris, CA41, geometric mean, read-out: MIC GM); 0.04 mg/L (≈ 0.0567 µM) in the experiment on C. auris Ca 46 (Candidozyma auris, CA46, geometric mean, read-out: MIC GM); 0.06 mg/L (≈ 0.085 µM) in the experiment with C. auris Ca 9 (Candidozyma auris, CA9, geometric mean, read-out: MIC GM); 0.35 mg/L (≈ 0.496 µM) with C. auris Ca 32 (Candidozyma auris, CA32, geometric mean, read-out: MIC GM). For the same compound, the MIC is 0.04 mg/L (≈ 0.0567 µM) in the experiment with C. lusitaniae MUM 17.08 (Clavispora lusitaniae, MUM17.08, geometric mean, read-out: MIC GM); 0.09 mg/L (≈ 0.128 µM) in experiment [3] (Lodderomyces metapsilosis, MUM15.12, geometric mean, read-out: MIC GM); 0.12 mg/L (≈ 0.17 µM) against C. tropicalis ATCC 750 (Candida tropicalis, ATCC750, geometric mean); > 16 mg/L in experiment [4] (Candida tropicalis, ATCC200956, geometric mean, read-out: MIC GM); 0.7 mg/L (≈ 0.992 µM) in the experiment on C. albicans ATCC 64550 (Candida albicans, ATCC64550, geometric mean); 0.06 mg/L (≈ 0.085 µM) in the experiment on C. albicans ATCC 10231 (Candida albicans, ATCC10231, geometric mean). Further, the MIC in the experiment on C. krusei ATCC 6258 (Pichia kudriavzevii, ATCC6258, geometric mean, read-out: MIC GM) stood at 0.28 mg/L (≈ 0.397 µM); in [5] (Lodderomyces orthopsilosis, MUM17.13, geometric mean, read-out: MIC GM) it was 0.12 mg/L (≈ 0.17 µM). Moreover, the “MIC Range” value against C. glabrata LMDM 34 is 1 mg/L (≈ 1.42 µM); in experiment [1], 0.25 to 0.50 mg/L; in [2] it was 0.5 to 1 mg/L; in the experiment on C. auris Ca 1, 0.03 to 0.12 mg/L; in the experiment on C. auris CDC B11903, 0.06 to 0.12 mg/L; in the experiment with C. auris Ca 45, 0.06 to 0.12 mg/L. Moreover, the “MIC Range” value lay within 0.06 to 0.12 mg/L with C. auris Ca 10; 0.12 to 0.5 mg/L in the experiment on C. auris Ca 17; 0.03 to 0.12 mg/L against C. auris Ca 41; 0.06 to 0.12 mg/L against C. auris Ca 46; 0.03 to 0.12 mg/L in the experiment with C. auris Ca 9; 0.25 to 0.50 mg/L against C. auris Ca 32. For the same compound, the “MIC Range” value was 0.03 to 0.06 mg/L against C. lusitaniae MUM 17.08; 0.06 to 0.12 mg/L in [3]; 0.06 to 0.25 mg/L against C. tropicalis ATCC 750; >16 mg/L in experiment [4]; 0.5 to 1 mg/L against C. albicans ATCC 64550; 0.03 to 0.125 mg/L in the experiment with C. albicans ATCC 10231. In addition, the “MIC Range” value was 0.12 to 0.50 mg/L with C. krusei ATCC 6258 and 0.12 mg/L (≈ 0.17 µM) in experiment [5].

On to `CC1=CC(=O)[C@@H]2C[C@H]1C2(C)C` [verbenone], for which the “antifungal activity in screening against C. auris” value in the experiment on C. auris was “active against only some of the clinical isolates of C. auris”.
